Data reported in paper PMC5573954 (Hippocampus, 2017).
Where two headings read alike, the source gives them in different places.

Key:
[1] = system: SC‐evoked synaptic field potentials in CA1 of hippocampal slices; experiment: Extracellular field potentials evoked by SC stimulation, hippocampal slices; conditions: from fitted dose–response curve, Figure 2a
[2] = system: spontaneous firing rates of CA1 neurons
[3] = molecular target: T1, hM2 (Homo sapiens, UniProt P08172); experiment: GloSensor cAMP functional assay, HEK293 cells stably expressing hM2; type: cell-based
T1 sequence (P08172 1-466): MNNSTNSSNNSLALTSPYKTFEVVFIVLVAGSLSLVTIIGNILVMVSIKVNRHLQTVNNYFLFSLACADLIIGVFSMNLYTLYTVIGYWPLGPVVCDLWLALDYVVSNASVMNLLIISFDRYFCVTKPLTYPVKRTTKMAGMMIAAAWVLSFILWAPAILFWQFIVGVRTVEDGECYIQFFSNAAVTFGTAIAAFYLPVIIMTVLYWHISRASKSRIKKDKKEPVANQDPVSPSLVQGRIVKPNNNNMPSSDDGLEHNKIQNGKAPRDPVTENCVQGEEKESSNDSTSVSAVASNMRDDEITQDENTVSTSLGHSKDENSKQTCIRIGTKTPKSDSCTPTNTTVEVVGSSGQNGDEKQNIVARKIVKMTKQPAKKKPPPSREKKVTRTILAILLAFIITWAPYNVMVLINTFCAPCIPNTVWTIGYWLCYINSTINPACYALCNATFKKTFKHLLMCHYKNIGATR

[4] = molecular target: T2, hM5 (Homo sapiens, UniProt P08912); experiment: FLIPR Ca2+ functional assay, CHO K1 cells stably expressing hM5; type: cell-based
T2 sequence (P08912 1-532): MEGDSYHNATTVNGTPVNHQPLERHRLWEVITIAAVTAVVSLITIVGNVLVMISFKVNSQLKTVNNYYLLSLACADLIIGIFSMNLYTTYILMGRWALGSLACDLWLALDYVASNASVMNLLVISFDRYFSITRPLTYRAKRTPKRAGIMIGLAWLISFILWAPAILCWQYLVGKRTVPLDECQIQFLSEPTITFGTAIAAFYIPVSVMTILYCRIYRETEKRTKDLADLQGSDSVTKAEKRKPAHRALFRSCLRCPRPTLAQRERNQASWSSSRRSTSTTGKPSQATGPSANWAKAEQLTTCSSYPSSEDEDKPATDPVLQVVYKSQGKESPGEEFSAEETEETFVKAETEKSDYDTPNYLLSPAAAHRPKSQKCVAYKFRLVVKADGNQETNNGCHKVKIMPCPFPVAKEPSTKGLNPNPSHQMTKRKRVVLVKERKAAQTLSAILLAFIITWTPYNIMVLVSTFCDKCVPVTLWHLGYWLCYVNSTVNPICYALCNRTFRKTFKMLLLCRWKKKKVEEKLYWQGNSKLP

[5] = molecular target: hM3 (Homo sapiens, UniProt P20309); experiment: FLIPR Ca2+ functional assay, CHO K1 cells stably expressing hM3; type: cell-based
hM3, sequence (P20309 whole entry): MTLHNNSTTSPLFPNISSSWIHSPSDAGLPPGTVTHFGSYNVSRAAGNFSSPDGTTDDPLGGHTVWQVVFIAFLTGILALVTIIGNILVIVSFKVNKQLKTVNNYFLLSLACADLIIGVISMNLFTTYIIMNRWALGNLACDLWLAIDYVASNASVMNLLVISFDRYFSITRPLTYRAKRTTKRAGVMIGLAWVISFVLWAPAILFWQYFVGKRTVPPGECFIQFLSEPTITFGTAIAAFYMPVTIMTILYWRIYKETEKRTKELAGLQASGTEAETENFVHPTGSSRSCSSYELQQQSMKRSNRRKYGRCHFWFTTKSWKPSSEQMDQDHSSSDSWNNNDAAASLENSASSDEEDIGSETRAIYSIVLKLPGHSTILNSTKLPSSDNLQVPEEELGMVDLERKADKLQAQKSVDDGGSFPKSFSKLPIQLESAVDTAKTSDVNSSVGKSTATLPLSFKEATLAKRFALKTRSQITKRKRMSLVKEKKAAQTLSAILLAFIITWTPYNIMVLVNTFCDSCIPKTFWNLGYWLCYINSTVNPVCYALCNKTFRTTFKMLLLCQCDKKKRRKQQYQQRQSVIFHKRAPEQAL

[6] = molecular target: 5HT2b receptors (Homo sapiens, UniProt P41595); experiment: Nonmuscarinic off-target functional activity: 5HT2b antagonism; type: cell-based
5HT2b receptors, sequence (P41595 whole entry): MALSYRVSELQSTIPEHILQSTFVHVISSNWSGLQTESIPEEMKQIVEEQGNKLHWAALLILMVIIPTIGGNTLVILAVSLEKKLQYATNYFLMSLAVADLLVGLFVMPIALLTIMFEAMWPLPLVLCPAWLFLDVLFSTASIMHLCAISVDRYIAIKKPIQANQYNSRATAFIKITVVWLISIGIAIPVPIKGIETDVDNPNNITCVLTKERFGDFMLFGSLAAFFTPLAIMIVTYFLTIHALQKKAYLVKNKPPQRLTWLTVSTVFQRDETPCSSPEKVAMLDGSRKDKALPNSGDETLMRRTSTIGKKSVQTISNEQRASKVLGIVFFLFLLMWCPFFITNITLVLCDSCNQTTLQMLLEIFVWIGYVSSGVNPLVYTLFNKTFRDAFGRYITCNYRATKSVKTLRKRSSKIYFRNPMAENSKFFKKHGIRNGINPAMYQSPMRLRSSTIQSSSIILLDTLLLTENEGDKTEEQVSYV

[7] = molecular target: T3, hM1 (Homo sapiens, UniProt P11229); experiment: FLIPR Ca2+ functional assay, CHO K1 cells stably expressing hM1; type: cell-based
T3 sequence (P11229 1-460): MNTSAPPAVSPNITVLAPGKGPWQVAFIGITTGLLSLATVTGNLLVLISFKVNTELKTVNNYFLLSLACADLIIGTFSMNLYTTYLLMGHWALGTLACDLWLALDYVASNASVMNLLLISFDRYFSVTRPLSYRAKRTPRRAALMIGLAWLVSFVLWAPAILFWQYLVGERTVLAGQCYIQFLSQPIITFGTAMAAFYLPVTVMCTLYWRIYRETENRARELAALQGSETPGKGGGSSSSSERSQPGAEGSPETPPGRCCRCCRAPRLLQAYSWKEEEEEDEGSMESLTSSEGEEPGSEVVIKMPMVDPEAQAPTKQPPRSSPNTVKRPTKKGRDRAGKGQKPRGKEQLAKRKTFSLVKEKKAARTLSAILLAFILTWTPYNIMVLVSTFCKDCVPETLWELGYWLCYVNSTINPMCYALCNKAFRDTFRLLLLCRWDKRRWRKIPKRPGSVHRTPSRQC

[8] = molecular target: T4, rat M4 receptor (rM4) (Rattus norvegicus, UniProt P08485); experiment: GloSensor cAMP functional assay, HEK293 cells stably expressing rM4
T4 sequence (P08485 1-478): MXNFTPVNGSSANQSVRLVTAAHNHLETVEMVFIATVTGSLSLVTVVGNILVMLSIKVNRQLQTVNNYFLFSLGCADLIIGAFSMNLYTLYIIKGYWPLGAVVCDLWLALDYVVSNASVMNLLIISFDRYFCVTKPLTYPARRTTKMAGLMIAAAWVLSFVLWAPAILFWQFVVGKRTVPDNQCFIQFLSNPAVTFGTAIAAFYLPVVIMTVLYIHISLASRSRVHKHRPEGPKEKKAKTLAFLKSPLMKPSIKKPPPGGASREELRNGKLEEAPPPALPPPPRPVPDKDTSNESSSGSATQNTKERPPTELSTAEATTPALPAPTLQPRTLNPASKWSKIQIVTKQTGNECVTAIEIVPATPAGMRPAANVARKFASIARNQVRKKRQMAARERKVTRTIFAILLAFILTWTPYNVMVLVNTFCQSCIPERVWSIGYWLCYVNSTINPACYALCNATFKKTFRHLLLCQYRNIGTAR

[9] = system: TA‐evoked EPSCs in CA1 pyramidal neurons; type: cell-based, rat
[10] = system: SC‐evoked EPSCs in CA1 pyramidal neurons; type: cell-based, rat
[11] = system: putative PV+ CA1 interneurons; experiment: Whole‐cell current step evoked firing of putative PV+ CA1 interneurons; type: cell-based, rat; conditions: 300 nM; n = 4; p = 0.0275
[12] = system: CA1 pyramidal neurons; experiment: Whole‐cell current step evoked firing of CA1 pyramidal neurons; type: cell-based, rat
[13] = molecular target: T5, hM4 (Homo sapiens, UniProt P08173); experiment: GloSensor cAMP functional assay, HEK293 cells stably expressing hM4; conditions: for selectivity for hM4 over hM2 (fold shift of PAM EC50): hM2 EC50 versus hM4 EC50, PAM mode
T5 sequence (P08173 1-479): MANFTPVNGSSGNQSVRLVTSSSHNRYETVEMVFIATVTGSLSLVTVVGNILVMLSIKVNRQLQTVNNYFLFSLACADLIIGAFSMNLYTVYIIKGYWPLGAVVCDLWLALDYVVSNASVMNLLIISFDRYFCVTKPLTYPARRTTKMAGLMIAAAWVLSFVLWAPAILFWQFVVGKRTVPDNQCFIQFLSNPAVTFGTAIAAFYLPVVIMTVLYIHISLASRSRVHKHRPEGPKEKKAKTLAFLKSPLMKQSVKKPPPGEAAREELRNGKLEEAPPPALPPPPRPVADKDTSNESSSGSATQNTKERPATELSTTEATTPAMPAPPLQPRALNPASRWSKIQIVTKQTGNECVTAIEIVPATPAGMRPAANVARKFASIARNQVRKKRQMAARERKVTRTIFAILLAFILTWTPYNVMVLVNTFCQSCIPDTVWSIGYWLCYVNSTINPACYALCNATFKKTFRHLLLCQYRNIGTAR

[14] = molecular target: beta‐2 adrenergic receptors (Homo sapiens, UniProt P07550); experiment: Nonmuscarinic off-target functional activity: beta-2 adrenergic antagonism; type: cell-based
beta‐2 adrenergic receptors, sequence (P07550 whole entry): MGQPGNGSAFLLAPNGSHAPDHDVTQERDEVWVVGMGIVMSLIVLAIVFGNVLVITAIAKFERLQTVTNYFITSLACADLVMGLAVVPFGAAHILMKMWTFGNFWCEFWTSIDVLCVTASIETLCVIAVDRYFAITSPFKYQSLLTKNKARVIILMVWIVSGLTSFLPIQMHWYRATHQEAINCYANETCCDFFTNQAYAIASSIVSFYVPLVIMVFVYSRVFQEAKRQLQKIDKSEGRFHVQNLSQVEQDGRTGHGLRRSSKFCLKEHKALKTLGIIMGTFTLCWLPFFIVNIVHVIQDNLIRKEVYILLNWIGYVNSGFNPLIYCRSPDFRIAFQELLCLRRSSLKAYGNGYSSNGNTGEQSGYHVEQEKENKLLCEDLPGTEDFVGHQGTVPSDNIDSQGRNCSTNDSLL

[15] = system: rat M4 receptor; conditions: ref Chan et al., 2008; cited from earlier work
[16] = 5 μM, end of recordings with PT‐3763, mean ± SEM

Structure (SMILES): O=C1CCCN1CC#CCN1CCCC1 [oxotremorine]
- EC20 of oxotremorine for reduction of SC‐evoked field potentials [1]: 20 nM
- upper z‐score asymptote of normalized spontaneous firing rates ([2]; compound alone, mean ± SEM): 108.2 ± 6.3

Structure (SMILES): CCOC(=O)N1CCCC(N2CCC(c3cccnc3OC)CC2)CC1 (stereo not shown) [PT‐6950, ethyl 4‐(4‐(2‐methoxypyridin‐3‐yl)piperidin‐1‐yl)azepane‐1‐carboxylate]
- EC50 [3]: 2.88 µM
- EC50 [4]: > 10 µM
- EC50 [5]: > 10 µM
- IC50 [6]: 1260 nM
- upper z‐score asymptote of normalized spontaneous firing rates ([2]; compound alone, mean ± SEM): 12.0 ± 16.7
- EC50 [7]: 312 nM
- EC50 [8]: 2.62 nM

Structure (SMILES): N#Cc1cc2[nH]c(=O)c(=O)[nH]c2cc1[N+](=O)[O-] [CNQX]
- CNQX‐induced suppression of TA‐evoked responses [9, 16]: 79.4 ± 4.8%
- CNQX‐induced suppression of SC‐evoked responses [10, 16]: 85.2 ± 4.1%

Structure (SMILES): Cc1cc(F)c2[nH]c(=O)n(C3CCN(C4CCOCC4)CC3)c2c1 [GSK1034702]
- firing rates of interneurons following current step [11]: increased firing rates
- effect on amplitude, slope, or PPR of EPSCs evoked by TA stimulation ([9]; 300 nM, 100 μM picrotoxin): no significant effect
- spike frequency accommodation ([12]; 300 nM, 200 pA current injection): significantly reduced
- number of spikes evoked in response to a 200 pA injected current step ([12]; 300 nM, p = 0.012 vs baseline): increase
- EC50 [13]: 1430 nM
- upper z‐score asymptote of normalized spontaneous firing rates ([2]; GSK1034702 data set with VU0255035 reversal): 56.3 ± 11.9
- upper z‐score asymptote of normalized spontaneous firing rates ([2]; GSK1034702 data set with pirenzipine reversal): 86.9 ± 13.6
- EC50 [7]: 27 nM
- effect on amplitude, slope, or PPR of EPSCs evoked by SC stimulation ([10]; 300 nM, 100 μM picrotoxin): no significant effect

Structure (SMILES): Cc1nnc2sc(C(=O)NC3CN(c4cccnc4)C3)c(N)c2c1C [PT‐1148, 5‐amino‐3,4‐dimethyl‐N‐(1‐(pyridin‐3‐yl)azetidin‐3‐yl)thieno[2,3‐c]pyridazine‐6‐carboxamide]
- selectivity for hM4 over hM2 (fold shift of PAM EC50) [13]: 536 fold
- upper z‐score asymptote of normalized spontaneous firing rates ([2]; in the presence of 20 nM oxotremorine and 1 μM VU0255035, not significant (p = 0.875)): 3.77 ± 23.9

Structure (SMILES): CC(=O)OCC[N+](C)(C)C [ACh, acetylcholine]
- ACh EC20 ([4]; hM5 cell line): 2 nM
- ACh EC20 ([5]; hM3 cell line): 0.8 nM
- ACh EC20 ([13]; hM4 cell line): 15 nM
- ACh EC20 ([8]; rM4 cell line): 0.8 nM

Structure (SMILES): O=C(CCNS(=O)(=O)c1cccc2nsnc12)N1CCN(c2ccncc2)CC1 [VU0255035]
- effect on GSK1034702 induced increase in CA1 firing rates ([2]; 3 μM): reversed
- effect on oxotremorine induced increase in spontaneous firing rates ([2]; 3 μM): partially reversed

Structure (SMILES): Cc1cc(C)c2c(N)c(C(=O)NC3CN(c4cccnc4)C3)sc2n1 [PT‐3763, 3‐amino‐4,6‐dimethyl‐N‐(1‐(pyridin‐3‐yl)azetidin‐3‐yl)thieno[2,3‐b]pyridine‐2‐carboxamide]
- IC50 [14]: 2990 nM
- selectivity for hM4 over hM2 (fold shift of PAM EC50) [13]: 28 fold

Structure (SMILES): COc1nc2sc(C(=O)NC3CC3)c(N)c2c(C)c1Cl [LY2033298]
- EC50 ([3]; hM2, PAM mode, in the presence of an EC20 of ACh (3 nM), isoproterenol 50 nM, brackets 95% CI): 3.28 µM
- potency at the rat M4 receptor compared with the human [15]: much weaker
- EC50 ([13]; hM4, PAM mode, in the presence of an EC20 of ACh (15 nM), isoproterenol 50 nM, brackets 95% CI): 41 nM

Structure (SMILES): CN1CCN(CC(=O)N2c3ccccc3C(=O)Nc3cccnc32)CC1 [pirenzepine]
- effect on GSK1034702 induced increase in evoked spikes ([12]; 3 μM): reversed
- effect on GSK1034702 induced reduction of spike frequency accommodation ([12]; 3 μM): similarly reversed
- effect on GSK1034702 induced increase in CA1 firing rates ([2]; 3 μM): reversed
- effect on M4 PAM induced reduction of SC‐evoked EPSC amplitude and slope ([10]; 3 μM, applied after PTX + OXO + M4 PAM): reversed
